Patent US6080871A, “Sulfonamides and sulfamides as H3 receptor antagonists” (James Black Foundation Limited, priority 1996, dated 2000)

These compounds were tested against T1, Histamine H3 (Cavia porcellus, UniProt Q9JI35) (assay: Histamine H3 radioligand binding assay, [3H]-R-α-methylhistamine, guinea pig ileum longitudinal muscle myenteric plexus membranes). Settings: not given.
T1 construct: ileum longitudinal muscle myenteric plexus membranes; from tissue; host or cells: ileum longitudinal muscle myenteric plexus membranes of male Dunkin Hartley guinea pigs
T1 sequence (Q9JI35 whole entry): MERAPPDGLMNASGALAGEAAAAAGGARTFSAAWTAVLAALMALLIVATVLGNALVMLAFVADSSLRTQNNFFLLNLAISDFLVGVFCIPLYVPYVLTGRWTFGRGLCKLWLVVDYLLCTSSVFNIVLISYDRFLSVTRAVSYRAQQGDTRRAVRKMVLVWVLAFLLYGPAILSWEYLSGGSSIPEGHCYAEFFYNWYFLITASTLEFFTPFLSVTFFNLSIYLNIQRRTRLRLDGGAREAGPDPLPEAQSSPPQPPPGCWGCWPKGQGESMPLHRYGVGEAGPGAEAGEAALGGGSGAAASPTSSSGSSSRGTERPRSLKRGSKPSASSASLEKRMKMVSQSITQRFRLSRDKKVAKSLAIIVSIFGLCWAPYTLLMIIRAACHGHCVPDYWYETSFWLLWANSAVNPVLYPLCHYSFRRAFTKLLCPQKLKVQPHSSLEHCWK
Experimental: Histamine H3 Radioligand Binding Assay
Male Dunkin Hartley guinea pigs (200-300 g) were used. The small intestine was rapidly removed (cut ~5 cm from caecum and 5 cm from stomach) and placed in ice-cold 20 mM Hepes-NaOH buffer (pH7.4 at 21±3° C.). The tissue was cut into ~10 cm segments, flushed through with ice-cold 20 mM Hepes-NaOH buffer and placed in a beaker containing fresh buffer at 4° C. 10 cm segments of ileum were threaded onto a glass pipette and the longitudinal muscle myenteric plexus was peeled away from the circular muscle using damp cotton-wool. Longitudinal muscle myenteric plexus was immediately placed in ice-cold Viaspan® solution (~100 ml for tissue from 3 guinea pigs) and placed in the refrigerator for 24 hours.
Pre-soaked tissue was weighed and minced with scissors. The tissue was then homogenised in Viaspan® using a polytron (Kinematica AG; PT-DA 3020/2TS, 3×~1-2 s). 50 ml of 500 mM Tris HCl (pH6.9 at 21±3° C.) was added to the tissue and the mixture centrifuged at 39,800×g for 12 min at 4° C. The supernatant was discarded and rehomogenised in 100 ml ice-cold 20 mM Hepes-NaOH buffer (pH7.4 at 21±3° C.) using a teflon-in-glass homogeniser (setting 10; 3×). The homogenate was recentrifuged at 39,800×g and the pellet resuspended in 20 mM Hepes-NaOH buffer (pH7.4 at 21±3° C.), to a tissue concentration of 50 mg.ml^-1, using a polytron (Brinkman, PT10, 3×~1 s).
Guinea pig ileum longitudinal muscle myenteric plexus membranes (400 μl) were incubated for 165 min at 21±3° C. in a final volume of 500 μl with 20 mM Hepes-NaOH buffer containing [^3 H]-R-α-methylhistamine (50 μl; 3 nM) and competing compound. Total and non-specific binding of [^3 H]-R-α-methylhistamine were defined using 50 μl of buffer and 50 μl of 10 μM thioperamide, respectively. The assay was terminated by rapid filtration through Whatman GF/B filters, presoaked (2 hr) in 0. 1% polyethyleneimine,using a Brandell Cell Harvester. The filters were washed (3×3 ml) with ice-cold 50 mM Tris-HCl (pH6.9 at 21±3° C.), transferred into scintillation vials, 5 ml liquid scintillation cocktail was added and after 4 hours the bound radioactivity was determined by counting (4 min) in a Beckman liquid scintillation counter.
Data are analysed using GraphPad prism and the general equation for a competition curve with variable Hill slope (nH).
Y=Non-specific binding+(Total binding-Non-specific binding)/1+10^((logIC.sbsp.50^-X).n.sbsp.H^)
X is the log concentration of competing compound, Y is the binding obtained at each concentration of X, pIC50 is the concentration of the competitor required to compete for half of the specific binding.
The IC50 is converted to the K1 using the Cheng Prusoff equation, […]
IC50 is the concentration of competitor required to compete for half the specific binding, L is the radioligand concentration used, KD is the equilibrium dissociation constant for the radioligand determined by saturation experiments.
(§1) Typical variance in the functional assay is ±0.15 log units. Typical variance in the binding assay is ±0.12 log units. This means that if the discrepancy between the two assays is greater than about 0.5 log units, then this difference on average is significant.

| Compound | Ki [nM] |
| --- | --- |
| O=S(=O)(Cc1ccc(Br)cc1)NCCCCc1c[nH]cn1 [Example 77, N-[4-(4(5)-Imidazoyl)butyl]-(4-bromophenyl)methanesulfonamide] | 3.09 |

Same assay, conditions: 3 nM [3H]-R-α-methylhistamine, 165 min, 21±3° C., Cheng Prusoff; variance ±0.12 log units

| Compound | pK1 (binding assay) |
| --- | --- |
| O=S(=O)(NCCCc1c[nH]cn1)NCc1ccc(Cl)cc1 [Example 14, N-[3-(4(5)-Imidazoyl)propyl]-N'-(4-chlorophenyl)methyl-sulfamide] | 7.28 |
| O=S(=O)(Cc1ccc(Cl)cc1)NCCCCCCCCc1c[nH]cn1 [Example 33, N-[8-(4(5)-Imidazoyl)octyl]-(4-chlorophenyl)methanesulfonamide] | 7.27 |
| O=S(=O)(Cc1ccc(F)cc1)NCCCCc1c[nH]cn1 [Example 79, N-[4-(4(5)-Imidazoyl)butyl]-(4-fluoromethylphenyl)methanesulfonamide] | 8.13 |
| O=S(=O)(Cc1ccc(Cl)cc1)NCCCCCCCCCCc1c[nH]cn1 [Example 34, N-[10-(4(5)-Imidazoyl)decyl]-(4-chlorophenyl)methanesulfonamide] | 7.23 |
| O=S(=O)(NCCCCCCCCCCc1c[nH]cn1)NCc1ccc(Cl)cc1 [Example 40, N-[10-(4(5)-Imidazoyl)decyl]-N'-(4-chlorophenyl)methyl-sulfamide] | 6.02 |

Same assay, conditions: 3 nM [3H]-R-α-methylhistamine, 165 min, 21±3° C., Cheng Prusoff; variance ±0.12 log units; read-out: pK1 (binding assay) (converted)

| Compound | Ki [nM] |
| --- | --- |
| CN(CCCCc1c[nH]cn1)S(=O)(=O)NCc1ccc(Cl)cc1 [Example 69, N'-(4-Chlorophenyl)methyl-N-[4-(4(5)-imidazoyl)butyl]-N-methyl-sulfamide] | 1.86 |
| O=S(=O)(NCCCCCc1c[nH]cn1)NCc1ccc(I)cc1 [Example 66, N-[5-(4(5)-Imidazoyl)pentyl]-N'-(4-iodophenyl)methyl-sulfamide] | 7.76 |
| O=S(=O)(NCCCCc1c[nH]cn1)NCC12CC3CC(CC(C3)C1)C2 [Example 52, N-[4-(4(5)-Imidazoyl)butyl]-N'-adamant-1-ylmethyl-sulfamide] | 200 |
| O=S(=O)(Cc1ccc(C(F)(F)F)cc1)NCCCCc1c[nH]cn1 [Example 78, N-[4-(4(5)-Imidazoyl)butyl]-(4-trifluoromethylphenyl)methanesulfonamide] | 3.55 |
| C[C@H](NS(=O)(=O)NCCCCc1c[nH]cn1)c1ccccc1 [Example 81, N-[4-(4(5)-Imidazoyl)butyl]-N'-(1S-phenylethyl)-sulfamide] | 145 |
| O=S(=O)(NCCCCCc1c[nH]cn1)NCc1ccc(-c2ccccc2)cc1 [Example 82, N-[5-(4(5)-Imidazoyl)pentyl]-N'-(4-biphenyl)methyl-sulfamide] | 27.5 |
| C[C@@H](NS(=O)(=O)NCCCCc1c[nH]cn1)c1ccccc1 [Example 80, N-[4-(4(5)-Imidazoyl)butyl]-N'-(1R-phenylethyl)-sulfamide] | 174 |

Each compound was assayed against T2, H3 receptor (Cavia porcellus, UniProt Q9JI35) (assay: H3 receptor bioassay (functional assay), guinea pig ileal longitudinal muscle myenteric plexus). Settings: antagonism of R-(α)-methylhistamine E/[A] curve, Schild's methods; electrically stimulated guinea pig ileum; variance ±0.15 log units.
T2 construct: the longitudinal muscle layer and adhering myenteric plexus was teased away; from tissue; host or cells: ileal longitudinal muscle with adhering myenteric plexus of male Dunkin-Hartley guinea pigs
T2 sequence (Q9JI35 whole entry): as above
Format: cell-based
Experimental: The biological activity of the compounds of the examples was measured using the ileal longitudinal muscle, myenteric plexus assay described by Paton and Aboo Zar (J. Physiol. 194, 13-33 (1968)). Male Dunkin-Hartley guinea pigs (250-300 g) were employed. Briefly, a 50 cm portion of ileum proximal to the caecum was removed, after discarding the terminal 20 cm. Ileal segments (3 cm) were cleaned by passing Krebs-Henseleit buffer containing 3 μM mepyramine gently through the ileum using a Pasteur pipette (size: 13.8 cm length, 0.65 cm diameter). To avoid unnecessary damage to the tissue, Krebs-Henseleit buffer was passed through the ileal segment, while it was lying horizontally on a petri dish. Therefore, the ileum was not over-distended and the buffer flowed through with ease. Each segment was then passed over a Pasteur pipette and the longitudinal muscle layer and adhering myenteric plexus was teased away using moist cotton wool, by stroking tangentially away from the mesenteric attachment. The tissues were suspended in 20 ml organ baths containing Krebs-Henseleit buffer at 37±1° C. and gassed with […]. The tissues were ligated to two parallel stainless steel wires, situated between two platinum electrodes (0.76 cm length, 0.06 cm diameter). All measurements were recorded isometrically (Grass FTO3 transducer). Following an initial loading tension of 1 g, the tissues were stimulated with electrical pulses at a frequency of 0.1 Hz and a pulse duration of 0.5msec, as described by Kosterlitz & Watt (1968). Initially, the tissues were stimulated at supramaximal (1.3 fold times maximal) voltage for a period of 30 min and then the tissues were washed and re-stimulated. A "sighter dose" of the selective histamine H3 -receptor agonist, R-(α)-methylhistamine(0.3 μM) (Arrang et al., 1987), was administered. Upon generation of response, the "sighter dose" was removed from the tissues by "washout" (6 washes over 60 min) and during this period the electrical stimulation was switched off. The tissues were then re-stimulated and allowed to stabilise prior to the addition of drug treatments, which were allocated on a randomised block basis to the organ baths. Following the incubation period, a single cumulative E/[A] curve was obtained. The experimental E/[A] curve data was expressed as the percentage inhibition of the peak height of electrically-stimulated contraction. Antagonist affinity values were calculated from the degree of rightward shift of the R-(α)-methylhistamine E/[A] curves using Schild's methods (Arunlatcshama & Schild, 1949).
as §1

| Compound | pKB (functional assay) |
| --- | --- |
| O=S(=O)(NCCc1c[nH]cn1)NCc1ccccc1 [Example 35, N-[2-(4(5)-Imidazoyl)ethyl]-N'-phenylmethyl-sulfamide] | 5.59 |

Same assay, conditions: antagonism of R-(α)-methylhistamine E/[A] curve, Schild's methods; electrically stimulated guinea pig ileum; variance ±0.15 log units; read-out: pKB (functional assay) (converted)

| Compound | Kb [nM] |
| --- | --- |
| CN(CCCCc1c[nH]cn1)S(=O)(=O)NCc1ccc(Cl)cc1 [Example 69, N'-(4-Chlorophenyl)methyl-N-[4-(4(5)-imidazoyl)butyl]-N-methyl-sulfamide] | 1.2 |
| O=S(=O)(NCCCc1c[nH]cn1)NCc1ccc(Cl)cc1 [Example 14, N-[3-(4(5)-Imidazoyl)propyl]-N'-(4-chlorophenyl)methyl-sulfamide] | 91.2 |
| O=S(=O)(NCCCCCc1c[nH]cn1)NCc1ccc(I)cc1 [Example 66, N-[5-(4(5)-Imidazoyl)pentyl]-N'-(4-iodophenyl)methyl-sulfamide] | 8.71 |
| O=S(=O)(Cc1ccc(Cl)cc1)NCCCCCCCCc1c[nH]cn1 [Example 33, N-[8-(4(5)-Imidazoyl)octyl]-(4-chlorophenyl)methanesulfonamide] | 229 |
| O=S(=O)(N[C@@H]1C[C@H]1c1c[nH]cn1)c1ccc2ccccc2c1 (relative stereo) [Example 72, N-[2-(4(5)-Imidazoyl)-trans-cyclopropyl]-2-naphthalenesulfonamide] | 955 |
| O=S(=O)(NCCc1c[nH]cn1)c1ccc(Cl)c(Cl)c1 [Example 16, N-[2-(4(5)-Imidazoyl)ethyl]-3,4-dichlorobenzenesulfonamide] | 170 |
| O=S(=O)(NCCc1c[nH]cn1)c1ccccc1 [Example 2, N-[2-(4(5)-Imidazoyl)ethyl]-benzenesulfonamide] | 2400 |
| O=S(=O)(NCCCc1c[nH]cn1)c1ccccc1 [Example 27, N-[3-(4(5)-Imidazoyl)propyl]-benzenesulfonamide] | 7760 |
| O=S(=O)(CCCc1ccccc1)NCCc1c[nH]cn1 [Example 18, N-[2-(4(5)-Imidazoyl)ethyl]-3-phenylpropanesulfonamide] | 162 |
| O=S(=O)(Cc1ccc(Cl)cc1)NCCCc1c[nH]cn1 [Example 26, N-[3-(4(5)-Imidazoyl)propyl]-(4-chlorophenyl)methanesulfonamide] | 513 |
| O=S(=O)(NCCc1c[nH]cn1)c1cccc2ccccc12 [Example 3, N-[2-(4(5)-Imidazoyl)ethyl]-1-naphthalenesulfonamide] | 537 |
| CN(CCCCc1c[nH]cn1)S(=O)(=O)CCc1ccc(Cl)cc1 [Example 85, N-[4-(4(5)-Imidazoyl)butyl]-N-methyl-2-(4-chlorophenyl)ethanesulfonamide] | 8.91 |
| O=S(=O)(CCCC1CCCCC1)NCCc1c[nH]cn1 [Example 4, N-[2-(4(5)-Imidazoyl)ethyl]-3-cyclohexylpropanesulfonamide] | 398 |
| COC(=O)[C@H](Cc1c[nH]cn1)NS(=O)(=O)c1ccc2ccccc2c1 [Example 73, 3-(4(5)-Imidazoyl)-2S-(2-naphthalene)sulfonamino-propionic Acid Methyl Ester] | 10200 |
| O=S(=O)(NCCc1c[nH]cn1)NCc1ccc(Cl)cc1 [Example 37, N-[2-(4(5)-Imidazoyl)ethyl]-N'-(4-chlorophenyl)methyl-sulfamide] | 1950 |
| O=S(=O)(Cc1ccc(-c2ccccc2)cc1)NCCCCc1c[nH]cn1 [Example 84, N-[4-(4(5)-Imidazoyl)butyl]-(4-biphenyl)methanesulfonamide] | 7.94 |
| O=S(=O)(NCCCc1c[nH]cn1)c1ccc2ccccc2c1 [Example 28, N-[3-(4(5)-Imidazoyl)propyl]-2-naphthalenesulfonamide] | 4070 |
| O=S(=O)(CCc1ccccc1)NCCc1c[nH]cn1 [Example 17, N-[2-(4(5)-Imidazoyl)ethyl]-2-phenylethanesulfonamide] | 447 |
| O=S(=O)(NCCCc1c[nH]cn1)NCc1ccccc1 [Example 36, N-[3-(4(5)-Imidazoyl)propyl]-N'-phenylmethyl-sulfamide] | 692 |

Same assay, conditions: guinea pig; printed beside 4.99 in the line of Example 73; read-out: α (functional assay)

| Compound | Emax [%] |
| --- | --- |
| COC(=O)[C@H](Cc1c[nH]cn1)NS(=O)(=O)c1ccc2ccccc2c1 [Example 73, 3-(4(5)-Imidazoyl)-2S-(2-naphthalene)sulfonamino-propionic Acid Methyl Ester] | ~20 |
